Experiments:
[1] = system: human embryonic stem cell line H1; experiment: Real-time PCR gene expression, dose of BMP inhibitor at S4 (Example 5); assay type: cell-based; conditions: 50 nM or 100 nM at days 1, 2, 3, or 4 of S4
Experimental: Cells of the human embryonic stem cell line H1 at various passages (passage 40 to passage 52) were seeded as single cells at a density of 100,000 cells/cm^2 on MATRIGEL™ (1:30 dilution) coated dishes in mTesr™1 media and 10 μM of Y27632. Forty eight hours post seeding, cultures were differentiated into pancreatic endocrine lineage as follows: • a. Stage 1 (Definitive Endoderm (DE)−4 days): Prior to start of DE, the cultures were washed and incubated with incomplete PBS (no Mg or Ca) for 30 seconds followed by addition of the stage 1 media. Human embryonic stem cells cultured as single cells on MATRIGEL™-coated dishes were treated with MCDB-131 medium supplemented with 0.1% fatty acid-free BSA, 0.0012 g/ml sodium bicarbonate, 1× GLUTAMAX™, 2.5 mM D-Glucose, 100 ng/ml GDF8, and 1 μM MCX compound (GSK3B inhibitor) for one day. Cells were then treated with MCDB-131 medium supplemented with 0.1% fatty acid-free BSA, 0.0012 g/ml sodium bicarbonate, 1× GLUTAMAX™, 2.5 mM glucose, and 100 ng/ml GDF8 for days 2-4. • b. Stage 2 (Primitive gut tube−3 days): Stage 1 cells were treated with MCDB-131 medium supplemented with 0.1% fatty acid-free BSA, 0.0012 g/ml sodium bicarbonate, 1× GLUTAMAX™, 2.5 mM D-Glucose, and 50 ng/ml FGF7 for three days. • c. […]

[2] = system: human embryonic stem cell line H1; experiment: Real-time PCR gene expression, BMP inhibition and PKC activation at S3 (Example 2); assay type: cell-based; conditions: 50 nM compared with 200 nM at S3
Experimental: Cells of the human embryonic stem cell line H1 were harvested at various passages (passage 40 to passage 52) and were seeded as single cells at a density of 100,000 cells/cm^2 on MATRIGEL™ (1:30 dilution) coated dishes in mTesr™1 media supplemented with 10 μM of Y27632. Forty eight hours post-seeding, cultures were differentiated into cells of the pancreatic endocrine lineage as follows: • a. Stage 1 (Definitive Endoderm (DE)—3 days): Prior to start of DE, the cultures were washed and incubated with incomplete PBS (no Mg or Ca) for 30 seconds followed by addition of the stage 1 media. Human embryonic stem cells cultured as single cells on MATRIGEL™-coated dishes were treated with MCDB-131 medium supplemented with 0.1% fatty acid-free BSA, 0.0012 g/ml sodium bicarbonate, 1× GLUTAMAX™, and 2.5 mM D-Glucose, 100 ng/ml GDF8, and […] MCX compound (GSK3B inhibitor) for one day. Cells were then treated with MCDB-131 medium supplemented with 0.1% fatty acid-free BSA, 0.0012 g/ml sodium bicarbonate, 1× GLUTAMAX™, 2.5 mM glucose, and 100 ng/ml GDF8 for days 2-3. • b. […]
mRNA was collected at S2-S4 for all the conditions listed above and analyzed using real-time PCR. […]

c1ccc2c(-c3cnn4cc(-c5ccc(N6CCNCC6)cc5)cnc34)ccnc2c1 [LDN-193189]
expression of endocrine markers [1]: prolong
expression of SOX2 ([1]; at S4-S5): low expression
induction of endocrine markers (chromogranin and NGN3) [2]: as effective as 200 nM LDN-193189

Source: patent publication US12215354B2, “Differentiation of human embryonic stem cells into single hormonal insulin positive cells” (Janssen Biotech, Inc., priority 2011, dated 2025)
